Source: patent publication US5215916A, “Super glucocorticoid receptors: receptors with increased affinity and specificity for glucocorticoid steriods” (priority 1991, dated 1993)
Changes are numbered by the printed parent chain.

Assays:
[1] = target: T1, C656G mutant glucocorticoid receptor (Rattus norvegicus, UniProt P06536, C656G/D98G); experiment: Competition binding assay with [3H]Dex, COS-7 cytosol, C656G receptor; parameters: Thus the full length receptor was removed from the VARO vector with BamHI and inserted into the SVL vector; expressed in transfected cells; host or cells: COS-7 (cytosol)
T1 sequence (P06536 1-795 D98G/C656G): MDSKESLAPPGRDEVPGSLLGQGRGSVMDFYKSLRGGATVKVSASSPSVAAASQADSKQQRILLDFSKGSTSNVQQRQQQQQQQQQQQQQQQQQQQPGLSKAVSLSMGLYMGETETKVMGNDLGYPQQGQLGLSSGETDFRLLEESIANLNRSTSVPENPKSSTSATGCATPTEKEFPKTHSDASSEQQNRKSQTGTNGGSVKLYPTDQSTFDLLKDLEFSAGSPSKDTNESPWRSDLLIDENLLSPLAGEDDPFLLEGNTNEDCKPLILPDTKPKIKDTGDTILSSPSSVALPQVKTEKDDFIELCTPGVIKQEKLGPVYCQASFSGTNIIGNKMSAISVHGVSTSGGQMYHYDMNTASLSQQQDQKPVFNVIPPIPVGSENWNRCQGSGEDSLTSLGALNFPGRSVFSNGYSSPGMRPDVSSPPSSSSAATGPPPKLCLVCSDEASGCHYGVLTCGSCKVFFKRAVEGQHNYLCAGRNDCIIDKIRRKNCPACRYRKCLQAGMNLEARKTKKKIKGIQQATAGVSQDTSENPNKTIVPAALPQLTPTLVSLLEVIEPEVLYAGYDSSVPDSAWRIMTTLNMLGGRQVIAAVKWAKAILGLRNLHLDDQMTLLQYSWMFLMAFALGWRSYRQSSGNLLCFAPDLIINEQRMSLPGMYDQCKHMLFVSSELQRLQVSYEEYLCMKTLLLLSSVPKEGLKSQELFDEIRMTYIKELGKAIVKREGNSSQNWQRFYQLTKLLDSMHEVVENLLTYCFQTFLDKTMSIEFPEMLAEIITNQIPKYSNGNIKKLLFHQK
Method: (§1) Monolayer cultures of COS-7 cells were grown in DMEM (Gibco) supplemented with 5% fetal bovine serum (FBS) (Biofluids) at 37° C. in a 5% CO2 incubator. Standard calcium phosphate transfection methods were used to introduce the wild type and mutant receptor expression vectors (pSVL) into COS-7 cells (100 mm plates [Costar] at a cell density of about 10^6 /plate were each treated with 10 μg of plasmid DNA). After ~16 hrs of incubation at 37° C. in a 5% CO2 incubator, the excess calcium phosphate and precipitate were removed by washing with phosphate buffered saline (PBS). The cells were incubated at 37° C. for another ~48 hr in DMEM/ 5% FBS and harvested by trypsinization followed by centrifugation (for 10 min at 1570 ×g) and washing 3 times with PBS. The washed cells were stored at -80° C. until used.
COS-7 cell cytosol containing the steroid-free receptors was prepared by cell lysis at -80° C. and centrifugation at 15,000 ×g and labeled as described for HTC cells (S. S. Simons and P. A. Miller, Biochem 23:6876-6882 (1984)). Briefly, 30% cytosol solutions containing ~21 mM Na2 MoO4 were prepared with three parts COS-7 cell cytosol, 2 parts pH 9.5 TAPS buffer, and 5 parts pH 8.8 TAPS buffer. The total EtOH in each experiment was kept constant and at a level of ≤1%. […] After incubation for 2.5 hr, the [^3 H]Dex-Mes-labeled solutions were quick-frozen at -78° C. for subsequent SDS-polyacrylamide gel electrophoresis analysis. The specifically bound [^3 H]Dex was determined by first adding a 10% dextran-coated charcoal solution (added volume =20% of reaction solution volume) to remove free steroid and then subtracting the nonspecific binding seen in the presence of excess nonradioactive Dex.
(§2) Duplicate aliquots (72 μl) of COS-7 cell cytosol (33.5% in pH 8.8 TAPS/27 mM Na2 MoO4 buffer) were treated with 4 μl each of [^3 H]Dex (in pH 8.8 TAPS buffer) and various concentrations of non-radioactive competing steroid (in 20% EtOH in pH 8.8 TAPS buffer) (final concentration of [^3 H]Dex ≈3 ×10^-8 M). The average specific binding was determined after 2.5 or 24 hr of incubation as described above, expressed as percentage of the non-competed control and plotted versus the log10 of the concentration of the competing steroid.
The specificity of steroid binding was determined by Rodbard correction (Rodbard, 1973) of the data from a competition binding assay (S. S. Simons et al., Biochem. Biophys. Res. Comm. 86:793-800 (1979); Miller and Simons, 1988). The initial data were collected from 2.5 hr binding assays because of concerns about the stability of the receptors over longer times.

[2] = target: T2, C640S mutant glucocorticoid receptor (Rattus norvegicus, UniProt P06536, C640S/D98G); experiment: Competition binding assay with [3H]Dex, COS-7 cytosol, C640S receptor
T2 construct: Thus the full length receptor was removed from the VARO vector with BamHI and inserted into the SVL vector; expressed in transfected cells; host or cells: COS-7 (cytosol)
T2 sequence (P06536 1-795 D98G/C640S): T1 sequence (P06536 1-795 D98G/C656G) with C640S, G656C
Method: as §1
COS-7 cell cytosol containing the steroid-free receptors was prepared by cell lysis at -80° C. and centrifugation at 15,000 ×g and labeled as described for HTC cells (S. S. Simons and P. A. Miller, Biochem 23:6876-6882 (1984)). […] The specifically bound [^3 H]Dex was determined by first adding a 10% dextran-coated charcoal solution (added volume =20% of reaction solution volume) to remove free steroid and then subtracting the nonspecific binding seen in the presence of excess nonradioactive Dex.
as §2
The specificity of steroid binding was determined by Rodbard correction (Rodbard, 1973) of the data from a competition binding assay (S. S. Simons et al., Biochem. Biophys. Res. Comm. 86:793-800 (1979); Miller and Simons, 1988). […]

Row | Structure (SMILES) | Relative Ka of Steroid Binding to Receptor [1] | Relative Ka of Steroid Binding to Receptor [2] | effect of replacement of Cys-656 with glycine on relative affinity ([1]; C656G vs wild type, compared with effect seen for C661S, 2.5 hr incubation) | change in absolute affinity for the glucocorticoid receptor as a result of C656G mutation ([1]; C656G vs wild type, from Table 1B and Table 2, aldosterone only "perhaps")
1 | CC#C[C@]1(O)CC[C@H]2[C@@H]3CCC4=CC(=O)CCC4=C3[C@@H](c3ccc(N(C)C)cc3)C[C@@]21C [RU486] | 2.5 ± 0.7 | 6.8 ± 2.2 |  | 
2 | C[C@]12CCC(=O)C=C1CC[C@@H]1[C@@H]2[C@@H](O)C[C@]2(C=O)[C@@H](C(=O)CO)CC[C@@H]12 [Aldosterone, aldosterone] |  | 0.18 ± 0.002 | less of an effect | decreased
3 | C[C@]12CC[C@@H]3c4ccc(O)cc4CC[C@H]3[C@@H]1CC[C@@H]2O [17β-Estradiol, 17β-estradiol] | 0.0017 ± 0.0006 | 0.010 ± 0.007 |  | 
